Assay [1] deals with choroid plexus epithelial cells. Briefly: Cell death quantification with Cell Death Detection ELISAPLUS kit. In kind it is cell-based, rat. The following applies: primary choroid plexus epithelial cells, Aβ40 5 mg/ml, 24 h, ELISA PLUS kit. The procedure:
Primary cultures from choroid plexus epithelial cells from P3-P5 Wistar rats were prepared as described previously. Cells were grown to confluence for 5-7 days and serum starved for 2 hours. Cultures were maintained at 37°C in a humidified atmosphere containing 5% CO2, and cultivated for 7 days prior to experimentation. Human analogue peptides corresponding to Aβ1-40 and scrambled Aβ1-40 (AnaSpec, Inc.) were added. 24 hours after stimulation, cells were either fixed for immunocytochemical analysis or homogenized for immunoblot determination. For ICD p75NTR detection primary cultures cells proteasome inhibitor epoxomycin (1 μM) (Sigma) was applied 1.5 hours prior to Aβ treatment.
For cell death quantification, after incubation for 24 h with Aβ40 (5 mg/ml), choroid plexus epithelial cells in vitro were measured with Cell Death Detection ELISAPLUS kit (Roche Diagnostics) as described previously.
Background: In an ELISA, binding on a coated surface is turned into a signal by an enzyme label.

The next assay deals with p75NTR. Description: Proteolytic processing of p75NTR (Western blot, immunofluorescence, cell fractionation). Format: cell-based, rat. The procedure: Primary cultures from choroid plexus epithelial cells from P3-P5 Wistar rats were prepared as described previously. Cells were grown to confluence for 5-7 days and serum starved for 2 hours. Cultures were maintained at 37°C in a humidified atmosphere containing 5% CO2, and cultivated for 7 days prior to experimentation. Human analogue peptides corresponding to Aβ1-40 and scrambled Aβ1-40 (AnaSpec, Inc.) were added. […] For ICD p75NTR detection primary cultures cells proteasome inhibitor epoxomycin (1 μM) (Sigma) was applied 1.5 hours prior to Aβ treatment.
For Western blot analysis cultures cells were washed once with ice-cold PBS and lysed in PIK buffer (150 mM NaCl, 20 mM TrisHCl pH 7.4, 1% NP40 and protease inhibitors: 1 μg/mL aprotinin, 1 μg/mL leupeptin and 1 μg/mL phenylmethylsulfonyl fluoride, PMSF). For cell fractionation cells were lysed with C buffer (10 mM HEPES, 60 mM KCl, 1 mM EDTA, 0.075% Triton X100, 1 mM DTT with protease inhibitors. The pellet nuclei was obtained by centrifugation 325 g, 4 minutes and resuspended in NB buffer (20 mM TrisHCl pH 8, 420 mM NaCl, 15 mM MgCl2, 0.2 mM EDTA, 25% Glicerol and protease inhibitors). Thereafter, the nuclei supernatant were obtained after centrifugation 9000 g, 10 minutes. After running the samples in acrylamide gels, proteins were transferred (immobilon, Bio-Rad) and membranes were incubated with the corresponding primary at 4°C overnight. Afterwards, membranes were washed and incubated with secondary antibodies. Membranes were washed several times with Tween-TBS and developed with ECL plus (Amersham). Western blot membranes were re-blotted with unrelated proteins (α-actin) as an internal standard and normalized for protein load. Densitometric analysis was performed using ImageJ software (NIH Image). A representative blot is shown from a total of at lest three independent experiments.
Immunocytochemistry was performed with primary cultures from choroid plexus plated on 20 mm coverslips and fixed. Rat and human choroid plexus were also fixed with 4% paraformaldehyde and processed for histochemical analysis. […]
For orientation: Immunoblotting shows a protein as a band on a membrane.

For “Aβ1-40: Human analogue peptides corresponding to Aβ1-40 (AnaSpec, Inc.)”, the “increase of cell death upon control cells” value in assay [1] came to 29%. Besides, the “release of p75NTR-ICD fragment (19 KDa)” value in the assay on p75NTR (Aβ1-40 2.5 μg/mL for 15, 30 and 60 minutes, proteasome inhibitor pre-treatment, Western blot with antibody 9992) was “induced a release of ICD fragment at 15 and 30 minutes”. The “nuclear accumulation of p75NTR-ICD, immunofluorescence” value in the assay on p75NTR (Aβ1-40 2.5 μg/mL, 60 minutes, proteasome inhibitor 1.5 hours before, confocal microscopy) was “considerable accumulation of p75NTR-ICD occurred in the majority of nuclei”. The “p75NTR-ICD 19 KDa band in nuclear extracts” value in the assay on p75NTR (Aβ1-40 for 15, 30 and 60 minutes, nuclear and cytoplasmic extracts, Western blot with antibody 9992) is “enriched in nuclear extracts”.

The values are drawn from PMC3103472, “The p75 neurotrophin receptor localization in blood-CSF barrier: expression in choroid plexus epithelium” (BMC Neuroscience, 2011).
